# Assay results: PubChem BioAssay (NCI)
# Several values for one entry are separate records, joined by “and”; a condition that tells them apart may be missing. Identical values can stand only once.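 Five concentrations, 48 hours, 96-well plates. GI50 = concentration required for 50% inhibition of growth. Definition used: TGI = concentration required for complete inhibition of growth.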
# Key:
# Test in all cases: NCI tumour cell line growth inhibition, 48 h
# [1] = system: 786-0 renal
# [2] = system: A498 renal
# [3] = system: A549 NSCLC
# [4] = system: ACHN renal
# [5] = system: CAKI-1 renal
# [6] = system: CCRF-CEM leukemia
# [7] = system: COLO 205 colon
# [8] = system: DLD-1 colon
# [9] = system: DMS 114 small cell lung
# [10] = system: DMS 273 small cell lung
# [11] = system: EKVX NSCLC
# [12] = system: HCC-2998 colon
# [13] = system: HCT-116 colon
# [14] = system: HCT-15 colon
# [15] = system: HL-60(TB) leukemia
# [16] = system: HOP-18 NSCLC
# [17] = system: HOP-62 NSCLC
# [18] = system: HOP-92 NSCLC
# [19] = system: HT29 colon
# [20] = system: IGROV1 ovarian
# [21] = system: K-562 leukemia
# [22] = system: KM12 colon
# [23] = system: KM20L2 colon
# [24] = system: LOX IMVI melanoma
# [25] = system: LXFL 529 NSCLC
# [26] = system: M14 melanoma
# [27] = system: M19-MEL melanoma
# [28] = system: MALME-3M melanoma
# [29] = system: MOLT-4 leukemia
# [30] = system: NCI-H23 lung
# [31] = system: NCI-H460 lung
# [32] = system: OVCAR-3 ovarian
# [33] = system: OVCAR-4 ovarian
# [34] = system: OVCAR-5 ovarian
# [35] = system: OVCAR-8 ovarian
# [36] = system: RPMI-8226 leukemia
# [37] = system: RXF-631 renal
# [38] = system: SF-268 CNS
# [39] = system: SF-295 CNS
# [40] = system: SF-539 CNS
# [41] = system: SK-MEL-2 melanoma
# [42] = system: SK-MEL-28 melanoma
# [43] = system: SK-MEL-5 melanoma
# [44] = system: SK-OV-3 ovarian
# [45] = system: SNB-75 CNS
# [46] = system: SNB-78 CNS
# [47] = system: SW-620 colon
# [48] = system: TK-10 renal
# [49] = system: U251 CNS
# [50] = system: UACC-257 melanoma
# [51] = system: UACC-62 melanoma
# [52] = system: MCF7 breast
# [53] = system: NCI-H226 lung
# [54] = system: NCI-H522 lung
# [55] = system: NCI/ADR-RES ovarian
# [56] = system: P388 leukemia
# [57] = system: P388/ADR leukemia
# [58] = system: RXF 393 renal
# [59] = system: SN12C renal
# [60] = system: SN12K1 renal
# [61] = system: SNB-19 CNS
# [62] = system: UO-31 renal
# [63] = system: XF 498 CNS
structure (smiles),measurement,setting,value
COc1ccc2c(c1)C1(C=N2)CCN(C(C)=O)CC1,TGI,[1],> 100 µM
same,TGI,[2],> 100 µM
same,TGI,[3],> 100 µM
same,TGI,[4],> 100 µM
same,TGI,[5],> 100 µM
same,TGI,[6],> 100 µM
same,TGI,[7],> 100 µM
same,TGI,[8],> 100 µM
same,TGI,[9],> 100 µM
same,TGI,[10],> 100 µM
same,TGI,[11],> 100 µM
same,TGI,[12],> 100 µM
same,TGI,[13],> 100 µM
same,TGI,[14],> 100 µM
same,TGI,[15],> 100 µM
same,TGI,[16],> 100 µM
same,TGI,[17],> 100 µM
same,TGI,[18],> 100 µM
same,TGI,[19],> 100 µM
same,TGI,[20],> 100 µM
same,TGI,[21],> 100 µM
same,TGI,[22],> 100 µM
same,TGI,[23],> 100 µM
same,TGI,[24],> 100 µM
same,TGI,[25],> 100 µM
same,TGI,[26],> 100 µM
same,TGI,[27],> 100 µM
same,TGI,[28],> 100 µM
same,TGI,[29],> 100 µM
same,TGI,[30],> 100 µM
same,TGI,[31],> 100 µM
same,TGI,[32],> 100 µM
same,TGI,[33],> 100 µM
same,TGI,[34],> 100 µM
same,TGI,[35],> 100 µM
same,TGI,[36],> 100 µM
same,TGI,[37],> 100 µM
same,TGI,[38],> 100 µM
same,TGI,[39],> 100 µM
same,TGI,[40],> 100 µM
same,TGI,[41],> 100 µM
same,TGI,[42],> 100 µM
same,TGI,[43],> 100 µM
same,TGI,[44],> 100 µM
same,TGI,[45],> 100 µM
same,TGI,[46],> 100 µM
same,TGI,[47],> 100 µM
same,TGI,[48],> 100 µM
same,TGI,[49],> 100 µM
same,TGI,[50],> 100 µM
same,TGI,[51],> 100 µM
C=C1C(=O)[C@@]23CC[C@H]4[C@@](C)(CCC[C@@]4(C)C(=O)OC)[C@@H]2CC[C@]1(O)C3,GI50,[2],1.49 µM
same,TGI,[2],3.09 µM
same,TGI,[3],10.4 µM and 10.6 µM
same,TGI,[5],2.96 µM
same,TGI,[6],> 100 µM
same,TGI,[7],3.83 µM and 3.18 µM
same,TGI,[8],1.33 µM
same,GI50,[10],1.32 µM
same,TGI,[10],2.66 µM and 3.08 µM
same,TGI,[11],3.5 µM
same,TGI,[12],8.55 µM
same,TGI,[13],2.21 µM and 2.17 µM
same,TGI,[14],2.85 µM and 2.71 µM
same,GI50,[15],0.27 µM
same,TGI,[15],1.35 µM and 0.967 µM
same,TGI,[16],3.62 µM and 3.51 µM
same,TGI,[17],34.7 µM
same,GI50,[18],1.48 µM
same,TGI,[18],2.88 µM and 3.21 µM
same,GI50,[19],0.911 µM
same,TGI,[19],3.14 µM and 2.71 µM
same,TGI,[20],3.07 µM and 3 µM
same,GI50,[21],0.463 µM
same,GI50,[22],1.97 µM
same,TGI,[22],3.6 µM and 5.81 µM
same,GI50,[23],1.91 µM
same,TGI,[23],3.83 µM
same,GI50,[24],1.34 µM
same,TGI,[24],2.64 µM and 2.22 µM
same,GI50,[27],1.13 µM
same,TGI,[27],2.46 µM and 2.91 µM
same,GI50,[28],2.51 µM
same,TGI,[28],9.8 µM
same,GI50,[52],0.326 µM
same,TGI,[52],1.35 µM and 3.79 µM
same,TGI,[29],0.98 µM
same,GI50,[53],1.78 µM
same,TGI,[53],3.38 µM and 7.45 µM
same,GI50,[30],2.41 µM
same,TGI,[30],5.05 µM and 2.96 µM
same,GI50,[31],1.8 µM
same,TGI,[31],3.45 µM and 13 µM
same,TGI,[54],2.94 µM
same,TGI,[55],2.87 µM
same,TGI,[32],3.48 µM and 3.25 µM
same,GI50,[33],1.69 µM
same,TGI,[33],3.12 µM and 3.31 µM
same,GI50,[34],3.95 µM
same,TGI,[34],11.8 µM and 3.54 µM
same,TGI,[35],2.96 µM and 2.85 µM
same,TGI,[56],0.424 µM
same,TGI,[57],0.224 µM
same,TGI,[36],0.969 µM
same,GI50,[58],3.06 µM
same,TGI,[58],7.97 µM
same,GI50,[38],1.55 µM
same,TGI,[38],3 µM and 3.35 µM
same,GI50,[39],9.14 µM
same,TGI,[39],21.9 µM and 18.1 µM
same,GI50,[40],3.53 µM
same,TGI,[40],11.2 µM and 3.18 µM
same,GI50,[41],1.5 µM
same,TGI,[41],2.82 µM and 3.12 µM
same,TGI,[42],3.24 µM and 3.32 µM
same,TGI,[43],3.65 µM
same,TGI,[44],33.4 µM
same,TGI,[59],3.06 µM and 3.23 µM
same,GI50,[60],1.67 µM
same,TGI,[60],3.15 µM and 2.82 µM
same,GI50,[61],4.79 µM
same,TGI,[61],16.6 µM and 27.5 µM
same,GI50,[45],3.69 µM
same,TGI,[45],12 µM and 6.94 µM
same,GI50,[47],0.878 µM
same,TGI,[47],2.84 µM and 1.85 µM
same,GI50,[49],2.2 µM
same,TGI,[49],4.67 µM and 11.3 µM
same,GI50,[50],1.97 µM
same,TGI,[50],3.42 µM and 3.11 µM
same,GI50,[51],1.33 µM
same,TGI,[51],2.78 µM and 2.95 µM
same,GI50,[62],1.63 µM
same,TGI,[62],3 µM and 4.03 µM
same,TGI,[63],3.17 µM and 3.15 µM
